Experimental data: patent publication US10323018B2 (Millennium Pharmaceuticals, Inc., priority 2015, dated 2019)

Assays:
hNAMPT protein = hNAMPT protein (Homo sapiens (Human), UniProt P43490); experiment: NAMPT enzyme assay (TR-FRET/HTRF with BodiPY ligand); format: binding; settings: for inhibition at 1 µM: NAMPT inhibition at compound concentration 1 μM; for IC50: NAMPT inhibition, IC50 range class
Excerpt: As discussed above, the invention provides compounds that are useful as inhibitors of the enzyme NAMPT. The NAMPT inhibition of a compound of the invention can be measured using a variety of methods known in the art. For example, the ability of a compound of the invention to inhibit NAMPT enzyme activity can be measured using a homogeneous time resolved fluorescence (HTRF) assay using hNAMPT protein and anti 6His-Tb in buffer treated with a compound of the invention (or control e.g., DMSO) and BodiPY ligand. The TR-FRET signal can be measured using a high throughput microplate reader (e.g., Pherastar). Excitation can be carried out at 320 nm. The percent inhibition value at a single concentration of compound of the invention can be calculated relative to a control treated sample. A concentration response curve can be generated for each compound of the invention and the curve fitted to generate an IC50 value. […] To measure the inhibition of NAMPT activity hNAMPT protein stock and anti 6His-Tb (Cisbio; Cat. No. […]TLB) is diluted to 3× final concentration with assay buffer (50 mM Tris-HCl (pH 7.5), 1 mM DTT, 100 mM NaCl, 10 mM MgCl2, 0.005% Tween 20). To this solution is added a test compound or vehicle control (DMSO) and BodiPY ligand (structure below). The plate is shaken for 1-2 min sealed and incubated for 1 h at rt in the dark. The TR-FRET signal is measured using BMG Pherastar (Lanthascreen protocol on BMG Pherastar). Excitation was carried out at 320 nm, and the ratio of emission of BodiPY (520 nm) to terbium (486 nm) was determined. Concentration response curves are generated by calculating the excitation increase in test compound-treated samples relative to DMSO-treated controls. For the assay method described above, test compound percent inhibition values at a single concentration are calculated relative to control (DMSO) treated samples. Compound concentration response curves are fitted to generate IC50 values from those curves. One skilled in the art will appreciate that these values generated either as percentage inhibition at a single concentration or IC50 values are subject to experimental variation.

PC3 cells = experiment: PC3 growth inhibition (Cell-titer glo, 72 hours); format: cell-based; settings: Homo sapiens, PC-3, 72 h, read-out: Percent Viability, PC3 cells, compound concentration 1.667 μM, 72 hours
Method: The invention also provides compounds that inhibit cell growth. The ability of a compound of the invention to inhibit the growth of cells can be measured using a variety of methods known in the art. For example, the ability of a compound of the invention to inhibit the growth of PC3 cells can be measured. PC3 cells can be plated and incubated overnight under CO2. For each measurement, a compound of the invention (or vehicle e.g., DMSO) can be diluted with AIM serum free medium and added to the cell plate. The cell plate can then be incubated for 72 h under CO2. Cell-titer glo solution can be added and the plates can be incubated protected from light and the amount of luminescences can be measured. Concentration response curves can be generated by calculating the luminescence increase in test compound treated samples relative to DMSO-treated controls. Percentage remaining viability values at a single concentration can be measured. Growth inhibition (GI50) or cell viability (LD50) values can be determined from thoses curves. In one embodiment, compounds of the invention have a percent viability in PC3 line @ 1.667 uM of <1%. In one embodiment, compounds of the invention have a percent viability in PC3 line @ 1.667 uM of <2%. In one embodiment, compounds of the invention have a percent viability in PC3 line @ 1.667 uM of <3%. In one embodiment, compounds of the invention have a percent viability in PC3 line @ 1.667 uM of <4%. In one embodiment, compounds of the invention have a percent viability in PC3 line @ 1.667 uM of <5%. In one embodiment, compounds of the invention have a percent viability in PC3 line @ 1.667 uM of <10%. In one embodiment, compounds of the invention have a percent viability in PC3 line @ 1.667 uM of <50%.
To measure PC3 growth inhibition, PC3 cells that were maintained in RPMI1640 growth medium (Life Technologies; Cat. No. 11875) at 37° C. under 5% CO2 are trypsinized and diluted at a density of 8×10^4 cells/ml, 25 ul per well of cells and plated in 384-well black tissue culture plate. The cells are incubated overnight at 37° C. under 5% CO2. For each measurement, a test compound or vehicle DMSO control is diluted with AIM serum free medium and added to the cell plate. The cell plate is incubated for 72 hours at 37° C. under 5% CO2. 25 μl Cell-titer glo solution (Promega; Cat. No. G8462) is added and the cell plates are incubated for 10 minutes protected from light. The luminescence is measured. Concentration response curves are generated by calculating the luminescence increase in test compound-treated samples relative to DMSO-treated controls. Percentage remaining viability values at a single concentration, growth inhibition (GI50) or cell viability (LD50) values are determined from those curves. One skilled in the art will appreciate that these values are subject to experimental variation.

Sequence of hNAMPT protein (P43490 whole entry): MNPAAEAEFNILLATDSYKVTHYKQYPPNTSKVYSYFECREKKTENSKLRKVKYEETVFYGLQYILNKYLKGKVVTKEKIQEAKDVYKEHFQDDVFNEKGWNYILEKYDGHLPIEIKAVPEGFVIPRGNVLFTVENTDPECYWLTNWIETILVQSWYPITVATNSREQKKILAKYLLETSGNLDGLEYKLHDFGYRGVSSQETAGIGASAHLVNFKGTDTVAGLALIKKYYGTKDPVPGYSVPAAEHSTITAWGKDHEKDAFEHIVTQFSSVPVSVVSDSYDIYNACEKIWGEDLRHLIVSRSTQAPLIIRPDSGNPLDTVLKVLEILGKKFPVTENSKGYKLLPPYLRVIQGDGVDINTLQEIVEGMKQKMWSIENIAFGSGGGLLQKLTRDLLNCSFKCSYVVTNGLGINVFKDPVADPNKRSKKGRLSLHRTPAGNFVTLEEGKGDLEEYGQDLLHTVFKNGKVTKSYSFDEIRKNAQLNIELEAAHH

Structure (SMILES)	inhibition at 1 µM (hNAMPT protein; read-out: Percent Inhibition) [%]	IC50 (hNAMPT protein) [nM]	viability at 1.667 µM (PC3 cells) [%]	inhibition at 0.33 µM (hNAMPT protein; NAMPT inhibition at compound concentration 0.33 μM, read-out: Percent Inhibition) [%]
CC(C)Oc1nc(-c2ccc(F)cc2)nc2cc(C(=O)NCCCc3ncc[nH]3)ccc12 [Compound I-36, 2-(4-fluorophenyl)-N-[3-(1H-imidazol-2-yl)propyl]-4-isopropoxyquinazoline-7-carboxamide]	> 99	< 10	2	
COCCOc1nc(-c2ccc(F)cc2)nc2cc(C(=O)NCCCc3ncc[nH]3)ccc12 [Compound I-37, 2-(4-fluorophenyl)-N-[3-(1H-imidazol-2-yl)propyl]-4-(2-methoxyethoxy)quinazoline-7-carboxamide]	> 99	< 10	2	
CCOc1nc(-c2ccc(Cl)cc2)nc2cc(C(=O)NCCCc3ncc[nH]3)ccc12 [Compound I-38, 2-(4-chlorophenyl)-4-ethoxy-N-[3-(1H-imidazol-2-yl)propyl]quinazoline-7-carboxamide]	> 99	< 10	2	
CCN(C)c1nc(-c2ccc(F)cc2)nc2cc(C(=O)NCCCc3ncc[nH]3)ccc12 [Compound I-39, 4-[ethyl(methyl)amino]-2-(4-fluorophenyl)-N-[3-(1H-imidazol-2-yl)propyl]quinazoline-7-carboxamide]	96	10 to 50	2	
O=C(NCCCc1ncc[nH]1)c1ccc2c(OCC3CC3)nc(-c3ccc(F)cc3)nc2c1 [Compound I-40, 4-(cyclopropylmethoxy)-2-(4-fluorophenyl)-N-[3-(1H-imidazol-2-yl)propyl]quinazoline-7-carboxamide]	> 99	< 10	3	
CCNc1nc(-c2ccc(F)cc2)nc2cc(C(=O)NCCCc3ncc[nH]3)ccc12 [Compound I-41, 4-(ethylamino)-2-(4-fluorophenyl)-N-[3-(1H-imidazol-2-yl)propyl]quinazoline-7-carboxamide]	92	> 100	2	
CCNc1cc(OCC)c2ccc(C(=O)NCCCc3ncc[nH]3)cc2n1 [Compound I-42, 4-ethoxy-2-(ethylamino)-N-[3-(1H-imidazol-2-yl)propyl]quinoline-7-carboxamide]	83	> 100	11	
CCOc1cc(-c2ccc(F)cc2)nc2cc(C(=O)NCCCn3cccn3)ccc12 [Compound I-43, 4-ethoxy-2-(4-fluorophenyl)-N-[3-(1H-pyrazol-1-yl)propyl]quinoline-7-carboxamide]	99	< 10	77	
CCOc1cc(-c2ccc(F)cc2)nc2cc(C(=O)NCCCc3nccs3)ccc12 [Compound I-44, 4-ethoxy-2-(4-fluorophenyl)-N-[3-(1,3-thiazol-2-yl)propyl]quinoline-7-carboxamide]	97	< 10	58	
CCOc1cc(-c2ccc(F)cc2)nc2cc(C(=O)NCCCc3ccnnc3)ccc12 [Compound I-45, 4-ethoxy-2-(4-fluorophenyl)-N-[3-(pyridazin-4-yl)propyl]quinoline-7-carboxamide]	100	< 10	8	
CCOc1cc(-c2ccc(F)cc2)nc2cc(C(=O)NCCc3ccn[nH]3)ccc12 [Compound I-46, 4-ethoxy-2-(4-fluorophenyl)-N-[2-(1H-pyrazol-5-yl)ethyl]quinoline-7-carboxamide]	97	10 to 50	3	
CCOc1cc(-c2ccc(F)cc2)nc2cc(C(=O)NCCc3ccc(C#N)cc3)ccc12 [Compound I-47, N-[2-(4-cyanophenyl)ethyl]-4-ethoxy-2-(4-fluorophenyl)quinoline-7-carboxamide]	47	< 10	99	
CCOc1cc(-c2ccc(F)cc2)nc2cc(C(=O)NCCc3cn[nH]c3)ccc12 [Compound I-48, 4-ethoxy-2-(4-fluorophenyl)-N-[2-(1H-pyrazol-4-yl)ethyl]quinoline-7-carboxamide]	97	10 to 50	4	
CCOc1cc(SCC)nc2cc(C(=O)NCCCc3ncc[nH]3)ccc12 [Compound I-49, N-(3-(1H-Imidazol-2-yl)propyl)-4-ethoxy-2-(ethylthio)quinoline-7-carboxamide]	98	< 10	5	
CCOc1cc(-c2ccc(F)c(F)c2)nc2cc(C(=O)NCCCc3ncc[nH]3)ccc12 [Compound I-52, 2-(3,4-difluorophenyl)-4-ethoxy-N-[3-(1H-imidazol-2-yl)propyl]quinoline-7-carboxamide]	99	< 10	4	
O=C(NCCCc1ncc[nH]1)c1ccc2c(Cc3ccccc3)nc(-c3ccc(Cl)cc3)nc2c1 [Compound I-53, 4-benzyl-2-(4-chlorophenyl)-N-[3-(1H-imidazol-2-yl)propyl]quinazoline-7-carboxamide]	93	10 to 50	4	
CCOc1cc(-c2ccc(F)cc2)nc2cc(C(=O)NCc3nc4ccccc4[nH]3)ccc12 [Compound I-54, N-(1H-benzimidazol-2-ylmethyl)-4-ethoxy-2-(4-fluorophenyl)quinoline-7-carboxamide]		< 10	94	96
CCOc1cc(-c2ccc(F)cc2)nc2cc(C(=O)NCCn3cncn3)ccc12 [Compound I-55, 4-ethoxy-2-(4-fluorophenyl)-N-[2-(1H-1,2,4-triazol-1-yl)ethyl]quinoline-7-carboxamide]	93	50 to 100	86	
CCOc1cc(-c2ccc(F)c(Cl)c2)nc2cc(C(=O)NCCCc3ncc[nH]3)ccc12 [Compound I-56, 2-(3-chloro-4-fluorophenyl)-4-ethoxy-N-[3-(1H-imidazol-2-yl)propyl]quinoline-7-carboxamide]	99	< 10	1	
O=C(NCCCc1ncc[nH]1)c1ccc2c(-c3ccc(F)cc3)nc(-c3ccc(Cl)cc3)nc2c1 [Compound I-57, 2-(4-Chlorophenyl)-4-(4-fluorophenyl)-N-[3-(1H-imidazol-2-yl)propyl]quinazoline-7-carboxamide]	99	< 10	1	
CCOc1cc(C2CC2)nc2cc(C(=O)NCCCc3ncc[nH]3)ccc12 [Compound I-58, N-(3-(1H-Imidazol-2-yl)propyl)-2-cyclopropyl-4-ethoxyquinoline-7-carboxamide]	96	10 to 50	1	
